SMILES strings stand for the structures.

Type in all cases: in vivo
For experiment [1], the system named is Echinochloa crus-galli. The experiment is described as follows: Post-emergence herbicidal activity, ECHCG. The note with it: Application post-emergence, 1000 g/Ha, evaluated after 13 days, scale 0-5. The gist of the method: (§1)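 Pot-grown plants, 8 days after sowing, were sprayed with compound formulated in acetone/water (50:50) with 0.5% Tween 20. Glasshouse conditions 24/16° C day/night, 14 h light, 65% humidity; damage scored after 13 days on a 0 (none) to 5 (total) scale.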

Experiment [2] deals with Zea mays. The experiment is described as follows: Pre-emergence herbicidal activity, ZEAMX. Conditions: Application pre-emergence, 1000 g/Ha, evaluated after 13 days, scale 0-5. The method, boiled down: (§2)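 Damage was rated 13 days after treatment on a 0–5 scale (0 = no damage, 5 = total damage). Pots of seeds in standard soil were sprayed one day after sowing with an aqueous solution from an acetone/water (50:50), 0.5% Tween 20 formulation and kept at 24/16 °C day/night.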

For experiment [3], the system named is Setaria faberi. The experiment is described as follows: Post-emergence herbicidal activity, SETFA. The note with it: Application post-emergence, 1000 g/Ha, evaluated after 13 days, scale 0-5. The method, boiled down:
as §1

Experiment [4] concerns Alopecurus myosuroides. Description: Post-emergence herbicidal activity, ALOMY. The note with it: Application post-emergence, 1000 g/Ha, evaluated after 13 days, scale 0-5. The procedure:
(§3) Seeds of a variety of test species were sown in standard soil in pots. After 8 days cultivation (post-emergence) under controlled conditions in a glasshouse (at 24/16° C., day/night; 14 hours light; 65% humidity), the plants were sprayed with an aqueous spray solution derived from the formulation of the technical active ingredient in acetone/water (50:50) solution containing 0.5% Tween 20 (polyoxyethelyene sorbitan monolaurate, CAS RN 9005-64-5). The test plants were then grown in a glasshouse under controlled conditions (at 24/16° C., day/night; 14 hours light; 65% humidity) and watered twice daily. After 13 days, the test was evaluated (5=total damage to plant; 0=no damage to plant).

Experiment [5] concerns Abutilon theophrasti. The experiment is described as follows: Pre-emergence herbicidal activity, ABUTH. Conditions: Application pre-emergence, 1000 g/Ha, evaluated after 13 days, scale 0-5. The method, boiled down: as §2
Experiment [6] relates to Zea mays. Description: Post-emergence herbicidal activity, ZEAMX. Conditions: Application post-emergence, 1000 g/Ha, evaluated after 13 days, scale 0-5. The method, boiled down: as §1
Experiment [7] relates to Amaranthus retroflexus. The experiment is described as follows: Post-emergence herbicidal activity, AMARE. Conditions: Application post-emergence, 1000 g/Ha, evaluated after 13 days, scale 0-5. The method, boiled down: as §1
The subject of experiment [8] is Alopecurus myosuroides. The experiment is described as follows: Pre-emergence herbicidal activity, ALOMY. Conditions: Application pre-emergence, 1000 g/Ha, evaluated after 13 days, scale 0-5. The protocol: as §3, with “After” for “After 8 days”, “for one day (pre-emergence)” for “(post-emergence)”
Experiment [9] has as its system Setaria faberi. The experiment is described as follows: Pre-emergence herbicidal activity, SETFA. Conditions: Application pre-emergence, 1000 g/Ha, evaluated after 13 days, scale 0-5. The method, boiled down: as §2
Experiment [10] has as its system Amaranthus retroflexus. Description: Pre-emergence herbicidal activity, AMARE. The note with it: Application pre-emergence, 1000 g/Ha, evaluated after 13 days, scale 0-5. The method, boiled down: as §2
Experiment [11] relates to Echinochloa crus-galli. Description: Pre-emergence herbicidal activity, ECHCG. The note with it: Application pre-emergence, 1000 g/Ha, evaluated after 13 days, scale 0-5. The gist of the method:
as §2

For experiment [12], the system named is Abutilon theophrasti. Description: Post-emergence herbicidal activity, ABUTH. The note with it: Application post-emergence, 1000 g/Ha, evaluated after 13 days, scale 0-5. The method, boiled down:
as §1

Regarding `CN1CC(O)N(c2cc(C(F)(F)F)c(Cl)cn2)C1=O` (stereo not drawn) [Compound A36], the ECHCG damage score in the experiment on Echinochloa crus-galli [1] and in the experiment on Echinochloa crus-galli [11] was 5 throughout. In addition, the ZEAMX damage score with Zea mays [2] was found to be 2; with Zea mays [6] it was 5. Also, the SETFA damage score with Setaria faberi [3] is listed as 5; in the experiment on Setaria faberi [9] it was 4. The ALOMY damage score in the experiment on Alopecurus myosuroides [4] is given as 5; with Alopecurus myosuroides [8] it was 4. In addition, the ABUTH damage score in the experiment with Abutilon theophrasti [5] and with Abutilon theophrasti [12] was 5 in each case. In addition, the AMARE damage score in the experiment with Amaranthus retroflexus [7] and in the experiment on Amaranthus retroflexus [10] was 5 in each case.

Regarding `CN1CC(O)N(c2cc(C(F)(F)F)c(I)cn2)C1=O` (stereo not drawn) [Compound A5, 4-hydroxy-3-[5-iodo-4-(trifluoromethyl)-2-pyridyl]-1-methyl-imidazolidin-2-one], the ECHCG damage score in the experiment on Echinochloa crus-galli [1] and in the experiment on Echinochloa crus-galli [11] was 5 each time. Further, the ZEAMX damage score with Zea mays [2] is given as 4; in the experiment with Zea mays [6], 5. Further, the SETFA damage score with Setaria faberi [3] and in the experiment with Setaria faberi [9] was 5 each time. In addition, the ALOMY damage score came out at 5 in the experiment with Alopecurus myosuroides [4] and 4 with Alopecurus myosuroides [8]. In addition, the ABUTH damage score in the experiment with Abutilon theophrasti [5] and in the experiment on Abutilon theophrasti [12] was 5 each time. Further, the AMARE damage score in the experiment on Amaranthus retroflexus [7] and in the experiment on Amaranthus retroflexus [10] was 5 in each case.

As to `COCc1cccc(-c2cnc(N3C(=O)N(C)CC3O)cc2C(F)(F)F)c1` (stereo not drawn) [Compound A13], the figures for the ECHCG damage score with Echinochloa crus-galli [1] and in the experiment with Echinochloa crus-galli [11] were 4 and 2, respectively. In addition, the ZEAMX damage score in the experiment with Zea mays [2] is listed as 1; with Zea mays [6], 2. The results for the SETFA damage score in the experiment with Setaria faberi [3] and with Setaria faberi [9] were 4 and 2, respectively. Besides, the values for the ALOMY damage score in the experiment on Alopecurus myosuroides [4] and in the experiment on Alopecurus myosuroides [8] were 3 and 2, respectively. For the same molecule, the results for the ABUTH damage score in the experiment with Abutilon theophrasti [5] and with Abutilon theophrasti [12] were 2 and 5, respectively. Moreover, the figures for the AMARE damage score in the experiment on Amaranthus retroflexus [7] and in the experiment on Amaranthus retroflexus [10] were 5 and 3, respectively.

`CN1CC(O)N(c2cc(C(F)(F)F)c(-c3cccc([S+](C)[O-])c3)cn2)C1=O` (stereo not drawn) [Compound A11]: the ECHCG damage score in the experiment on Echinochloa crus-galli [1] stood at 3; in the experiment with Echinochloa crus-galli [11], 1. For the same molecule, the figures for the ZEAMX damage score with Zea mays [2] and with Zea mays [6] were 0 and 2, respectively. Further, the figures for the SETFA damage score in the experiment with Setaria faberi [3] and with Setaria faberi [9] were 3 and 1, respectively. Besides, the ALOMY damage score in the experiment on Alopecurus myosuroides [4] was found to be 2; with Alopecurus myosuroides [8], 1. For the same molecule, the ABUTH damage score in the experiment with Abutilon theophrasti [5] was 2; with Abutilon theophrasti [12] it was 5. The AMARE damage score with Amaranthus retroflexus [7] amounted to 5; in the experiment on Amaranthus retroflexus [10], 2.

For the molecule `CN1CC(O)N(c2cc(C(F)(F)F)c(-c3ccccc3)cn2)C1=O` (stereo not drawn) [Compound A3], the ECHCG damage score in the experiment on Echinochloa crus-galli [1] and with Echinochloa crus-galli [11] was 5 each time. The ZEAMX damage score in the experiment with Zea mays [2] turned out to be 4; in the experiment with Zea mays [6] it was 2. The SETFA damage score with Setaria faberi [3] and in the experiment on Setaria faberi [9] was 5 each time. In addition, the ALOMY damage score in the experiment on Alopecurus myosuroides [4] is 5; with Alopecurus myosuroides [8] it was 4. The ABUTH damage score with Abutilon theophrasti [5] and with Abutilon theophrasti [12] was 5 each time. Moreover, the AMARE damage score in the experiment with Amaranthus retroflexus [7] and with Amaranthus retroflexus [10] was 5 each time.
